Test results published in BigSolDB 2.1.

c1nc[nH]n1
Details	solubility (mole fraction)
in ethanol, 283.18 K	0.131
in ethanol, 288.25 K	0.147
in ethanol, 293.21 K	0.164
in ethanol, 298.18 K	0.184
in ethanol, 303.15 K	0.205
in ethanol, 308.14 K	0.228
in ethanol, 313.21 K	0.253
in ethanol, 318.23 K	0.28
in ethanol, 323.22 K	0.308
in ethanol, 328.27 K	0.339
in ethanol, 333.28 K	0.371
in ethyl acetate, 283.21 K	0.0268
in ethyl acetate, 288.29 K	0.032
in ethyl acetate, 293.21 K	0.0365
in ethyl acetate, 298.19 K	0.041
in ethyl acetate, 303.18 K	0.0457
in ethyl acetate, 308.27 K	0.0513
in ethyl acetate, 313.2 K	0.0578
in ethyl acetate, 318.21 K	0.066
in ethyl acetate, 323.16 K	0.0759
in ethyl acetate, 328.17 K	0.0884
in ethyl acetate, 333.27 K	0.104
in ethyl formate, 283.21 K	0.0208
in ethyl formate, 288.23 K	0.0246
in ethyl formate, 293.29 K	0.0286
in ethyl formate, 298.24 K	0.0331
in ethyl formate, 303.26 K	0.0384
in ethyl formate, 308.17 K	0.0446
in ethyl formate, 313.24 K	0.0524
in ethyl formate, 318.27 K	0.0617
in ethyl formate, 323.31 K	0.073
in isopropanol, 283.17 K	0.129
in isopropanol, 288.21 K	0.144
in isopropanol, 293.16 K	0.159
in isopropanol, 298.23 K	0.176
in isopropanol, 303.27 K	0.193
in isopropanol, 308.19 K	0.211
in isopropanol, 313.24 K	0.232
in isopropanol, 318.22 K	0.254
in isopropanol, 323.27 K	0.278
in isopropanol, 328.2 K	0.304
in isopropanol, 333.19 K	0.332
in isopropanol, 338.18 K	0.363
in isopropanol, 343.26 K	0.397
in methyl acetate, 283.27 K	0.0968
in methyl acetate, 288.21 K	0.106
in methyl acetate, 293.19 K	0.117
in methyl acetate, 298.21 K	0.128
in methyl acetate, 303.2 K	0.141
in methyl acetate, 308.29 K	0.155
in methyl acetate, 313.18 K	0.171
in methyl acetate, 318.16 K	0.189
in methyl acetate, 323.24 K	0.21
in n-butyl acetate, 283.2 K	0.0141
in n-butyl acetate, 288.23 K	0.0166
in n-butyl acetate, 293.26 K	0.0202
in n-butyl acetate, 298.22 K	0.024
in n-butyl acetate, 303.24 K	0.0279
in n-butyl acetate, 308.17 K	0.032
in n-butyl acetate, 313.28 K	0.037
in n-butyl acetate, 318.21 K	0.0428
in n-butyl acetate, 323.16 K	0.0498
in n-butyl acetate, 328.24 K	0.0586
in n-butyl acetate, 333.19 K	0.0688
in n-butyl acetate, 338.18 K	0.0809
in n-butyl acetate, 343.23 K	0.0955
in n-butyl acetate, 348.18 K	0.113
in n-butyl acetate, 353.19 K	0.136
in n-butyl acetate, 358.18 K	0.167
in n-butyl acetate, 363.26 K	0.211
in n-propanol, 283.17 K	0.12
in n-propanol, 288.18 K	0.135
in n-propanol, 293.27 K	0.15
in n-propanol, 298.19 K	0.168
in n-propanol, 303.21 K	0.187
in n-propanol, 308.23 K	0.208
in n-propanol, 313.27 K	0.231
in n-propanol, 318.2 K	0.256
in n-propanol, 323.22 K	0.283
in n-propanol, 328.28 K	0.313
in n-propanol, 333.18 K	0.344
in n-propanol, 338.23 K	0.378
in n-propanol, 343.29 K	0.415
in propylene glycol, 283.16 K	0.174
in propylene glycol, 288.27 K	0.212
in propylene glycol, 293.26 K	0.249
in propylene glycol, 298.16 K	0.284
in propylene glycol, 303.19 K	0.319
in propylene glycol, 308.18 K	0.353
in propylene glycol, 313.2 K	0.386
in propylene glycol, 318.28 K	0.419
in propylene glycol, 323.21 K	0.451
in propylene glycol, 328.22 K	0.483
in propylene glycol, 333.23 K	0.514
in propylene glycol, 338.29 K	0.545
in propylene glycol, 343.21 K	0.574
in propylene glycol, 348.23 K	0.604
in propylene glycol, 353.24 K	0.633
